Measured values as given in US20170119776A1, “CHIRAL 2,5-DISUBSTITUTED CYCLOPENTANECARBOXYLIC ACID DERIVATIVES AND USE THEREOF” (BAYER PHARMA AKTIENGESELLSCHAFT, priority 2014, published 2017).

Experiments:
Assay type in all cases: biochemical
[1] = biological target: T1, MMP-7 of the mouse (Mus musculus, UniProt Q10738); test: In vitro MMP-7 inhibition test of the mouse
T1 construct: purchased R&D Systems 2967-MP
T1 sequence (Q10738 95-264): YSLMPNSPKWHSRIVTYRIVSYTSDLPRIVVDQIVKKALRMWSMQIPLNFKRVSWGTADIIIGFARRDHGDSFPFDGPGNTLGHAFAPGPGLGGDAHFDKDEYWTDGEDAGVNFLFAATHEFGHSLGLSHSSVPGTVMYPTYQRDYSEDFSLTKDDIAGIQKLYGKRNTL
Source text: (§1) The activity strength of the compounds according to the invention towards other MMPs (and therefore their selectivity) is likewise ascertained in in vitro inhibition tests. The MMP-mediated amidolytic cleavage of a suitable peptide substrate also leads here to a fluorescent light increase. The signal intensity of the fluorescent light is directly proportional to the enzyme activity. The active concentration of a test compound at which half of the enzyme is inhibited (50% signal intensity of the fluorescent light) is given as IC50 value.
(§2) Recombinant MMP-7 of the mouse (R&D Systems, 2967-MP) is chemically activated in accordance with the manufacturer's instructions using APMA. 1 μl of the test compound to be analysed (as a solution in DMSO, suitable concentrations e.g. 1 nM to 30 μM) is pipetted into 24 μl of activated enzyme (final concentration e.g. 0.5 nM) in reaction buffer (50 mM Tris/HCl pH 7.5, 10 mM CaCl2, 150 mM NaCl, 0.05% Brij®-35) in a white 384-hole microtiter plate (MTP). The enzymatic reaction is started by adding the intramolecularly quenched substrate Mca-Lys-Pro-Leu-Gly-Leu-Dpa(Dnp)-Ala-Arg-NH2 (final concentration e.g. 5 μM; R&D Systems, ES-010), such that a total test volume of 50 μl results. The progress of the MMP-7 reaction is measured by measuring the fluorescence intensity (excitation 320 nm, emission 410 nm) over a suitable period (e.g. over 120 min at a temperature of 32° C.).
(§3) Tables 3A and 3B below give the IC50 values from these tests for the inhibition of rodent MMPs for representative embodiment examples of the present invention and also for two structurally related comparison compounds from the prior art (as racemate and separated enantiomer)→(in part as average values from several independent individual determinations and rounded to two significant places). The IC50 values were determined for racemates and enantiomers from differently generated DMSO stock solutions. Whereas an automatically created DMSO stock solution from the internal substance logistics was used for racemates by means of a standard method, in the case of enantiomers, in each case a freshly produced, manually prepared DMSO stock solution was used for a more precise direct comparison of the enantiomers with one another.

[2] = biological target: T2, MMP-9 of the rat (Rattus norvegicus, UniProt P50282); test: In vitro MMP-9 inhibition test of the rat
T2 construct: purchased R&D Systems 5427-MM

[3] = biological target: T3, MMP-8 of the mouse (Mus musculus, UniProt O70138); test: In vitro MMP-8 inhibition test of the mouse
T3 construct: purchased R&D Systems 2904-MP
Source text: as §1
as §2, with “MMP-8” for “MMP-7”, “2904-MP)” for “2967-MP)”, “2” for “0.5”
as §3

[4] = biological target: T4, MMP-10 (Homo sapiens, UniProt P09238); test: In vitro MMP-10 inhibition test
T4 construct: purchased R&D Systems 910-MP
Source text: as §1
Recombinant MMP-10 (R&D Systems, 910-MP) is chemically activated in accordance with the manufacturer's instructions using APMA. 1 μl of the test compound to be analysed (as a solution in DMSO, suitable concentrations e.g. 1 nM to 30 μM) is pipette into 24 μl of activated enzyme (final concentration e.g. 2 nM) in reaction buffer (50 mM Tris/HCl pH 7.5, 10 mM CaCl2, 150 mM NaCl, 0.05% Brij®-35) in a white 384-hole microtiter plate (MTP). The enzymatic reaction is started by adding the intramolecularly quenched substrate Mca-Arg-Pro-Lys-Pro-Val-Glu-Nval-Trp-Arg-Lys(Dnp)-NH2 (final concentration e.g. 10 μM; R&D Systems, ES-002), such that a total test volume of 50 μl results. The progress of the MMP-10 reaction is measured by measuring the fluorescence intensity (excitation 320 nm, emission 410 nm) over a suitable period (e.g. over 120 min at a temperature of 32° C.).
The IC50 values were determined for racemates and enantiomers from differently generated DMSO stock solutions. Whereas an automatically produced DMSO stock solution from the internal substance logistics was used for racemates by means of a standard method, in the case of enantiomers a freshly produced, manually prepared DMSO stock solution was used in each case for a more precise direct comparison of the enantiomers with one another.

T4 sequence (P09238 99-476): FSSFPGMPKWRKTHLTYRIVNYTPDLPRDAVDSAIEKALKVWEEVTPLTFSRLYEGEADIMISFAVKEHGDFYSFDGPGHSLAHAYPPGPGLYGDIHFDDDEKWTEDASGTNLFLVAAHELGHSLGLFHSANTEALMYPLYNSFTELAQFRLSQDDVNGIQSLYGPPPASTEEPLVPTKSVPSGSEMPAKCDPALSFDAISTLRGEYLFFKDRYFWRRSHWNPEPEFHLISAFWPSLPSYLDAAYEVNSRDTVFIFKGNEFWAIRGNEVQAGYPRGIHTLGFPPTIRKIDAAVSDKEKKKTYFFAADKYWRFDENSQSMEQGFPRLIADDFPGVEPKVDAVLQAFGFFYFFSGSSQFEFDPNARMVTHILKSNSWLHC
T2 sequence (P50282 108-708): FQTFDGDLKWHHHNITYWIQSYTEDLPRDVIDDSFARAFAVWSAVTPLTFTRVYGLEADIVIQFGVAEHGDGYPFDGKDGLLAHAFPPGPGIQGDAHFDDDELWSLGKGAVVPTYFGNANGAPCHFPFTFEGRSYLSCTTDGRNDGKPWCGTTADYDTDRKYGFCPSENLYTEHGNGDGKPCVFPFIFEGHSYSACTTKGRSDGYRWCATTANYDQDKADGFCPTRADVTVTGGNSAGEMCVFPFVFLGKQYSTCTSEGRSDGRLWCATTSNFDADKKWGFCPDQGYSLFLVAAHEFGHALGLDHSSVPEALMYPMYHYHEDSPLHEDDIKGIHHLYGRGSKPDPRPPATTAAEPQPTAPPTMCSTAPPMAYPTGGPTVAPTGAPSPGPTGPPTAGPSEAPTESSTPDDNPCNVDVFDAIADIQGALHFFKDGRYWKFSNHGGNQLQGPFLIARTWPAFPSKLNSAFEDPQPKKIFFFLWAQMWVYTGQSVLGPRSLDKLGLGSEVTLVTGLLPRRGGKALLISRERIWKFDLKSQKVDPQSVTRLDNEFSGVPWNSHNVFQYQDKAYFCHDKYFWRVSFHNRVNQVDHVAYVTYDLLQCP
T3 sequence (O70138 101-465): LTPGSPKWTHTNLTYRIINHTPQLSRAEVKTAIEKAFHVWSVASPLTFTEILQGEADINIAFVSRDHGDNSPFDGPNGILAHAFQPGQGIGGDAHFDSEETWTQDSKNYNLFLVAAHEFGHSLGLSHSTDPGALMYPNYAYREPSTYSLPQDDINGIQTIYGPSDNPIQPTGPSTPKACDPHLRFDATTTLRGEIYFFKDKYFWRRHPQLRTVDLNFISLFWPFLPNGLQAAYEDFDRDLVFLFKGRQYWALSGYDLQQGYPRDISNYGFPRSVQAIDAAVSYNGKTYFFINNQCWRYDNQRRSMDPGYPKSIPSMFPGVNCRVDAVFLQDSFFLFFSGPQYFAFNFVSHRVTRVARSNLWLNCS

O=C(O)[C@H]1[C@H](Cn2nnc3ccccc3c2=O)CC[C@@H]1C(=O)c1ccc(-c2ccc(Cl)cc2)cc1 (racemic) [Comparative Example A-1, (1RS,2RS,5SR)-2-[(4′-chlorobiphenyl-4-yl)carbonyl]-5-[(4-oxo-1,2,3-benzotriazin-3(4H)-yl)methyl]cyclopentanecarboxylic acid (racemate)]
IC50 [1]: 15 nM | IC50 [2]: 4.6 nM | IC50 [3]: 1.1 nM | IC50 [4]: 4.6 nM

CCCCCOc1ccc(C(=O)CC(CCn2nnc3ccccc3c2=O)C(=O)O)cc1 (racemic) [Comparative Example B-1, (+/−)-4-Oxo-2-[2-(4-oxo-1,2,3-benzotriazin-3(4H)-yl)ethyl]-4-[4-(pentyloxy)phenyl]butanoic acid (racemate)]
IC50 [1]: 1400 nM | IC50 [2]: 3200 nM | IC50 [3]: 2300 nM | IC50 [4]: 5700 nM

O=C(O)[C@H]1[C@H](Cn2nnc3ccccc3c2=O)CC[C@@H]1C(=O)c1ccc(OCc2ccccc2)cc1 (racemic) [Example 1, (+/−)-(1RS,2RS,5SR)-2-[4-(Benzyloxy)benzoyl]-5-[(4-oxo-1,2,3-benzotriazin-3(4H)-yl)methyl]cyclopentanecarboxylic acid (racemate)]
IC50 [1]: 46 nM | IC50 [2]: 110 nM | IC50 [3]: 71 nM | IC50 [4]: 21 nM

CCCCCOc1ccc(C(=O)CC(CCn2nnc3ccccc3c2=O)C(=O)O)cc1 (single isomer, unassigned; enantiomer 1) [Comparative Example B-2, (+)-4-Oxo-2-[2-(4-oxo-1,2,3-benzotriazin-3(4H)-yl)ethyl]-4-[4-(pentyloxy)phenyl]butanoic acid (enantiomer 1)]
IC50 [1]: 525 nM | IC50 [2]: 1350 nM | IC50 [3]: 1080 nM | IC50 [4]: 1900 nM

O=C(O)[C@@H]1[C@@H](Cn2nnc3ccccc3c2=O)CC[C@H]1C(=O)c1ccc(-c2ccc(Cl)cc2)cc1 (single isomer, unassigned; enantiomer 2) [Comparative Example A-3, (1RS,2RS,5SR)-2-[(4′-Chlorobiphenyl-4-yl)carbonyl]-5-[(4-oxo-1,2,3-benzotriazin-3(4H)-yl)methyl]cyclopentanecarboxylic acid (enantiomer 2)]
IC50 [1]: 6.2 nM | IC50 [2]: 3.3 nM | IC50 [3]: < 0.61 nM | IC50 [4]: < 0.61 nM

O=C(O)[C@H]1[C@H](Cn2nnc3ccccc3c2=O)CC[C@@H]1C(=O)c1ccc(OCc2ccccc2)cc1 [Example 2, (+)-(1S,2S,5R)-2-[4-(Benzyloxy)benzoyl]-5-[(4-oxo-1,2,3-benzotriazin-3(4H)-yl)methyl]cyclopentanecarboxylic acid]
IC50 [1]: 22 nM | IC50 [2]: 46.5 nM | IC50 [3]: 34.5 nM | IC50 [4]: 17.5 nM
